Results: ChEMBL document CHEMBL5729054, “Five membered-aminoheterocycle and 5,6-or 6,6-membered bicyclic aminoheterocyclic inhibitors of rock for the treatment of heart failure” (2022)

Target: Rho-associated protein kinase 2 (Homo sapiens, UniProt O75116)
Test: In Vitro Assay: The effectiveness of compounds of the present invention as ROCK inhibitors can be determined in a 30 μL assay containing 20 mM HEPES, pH 7.5, 20 mM MgCl2, 0.015% Brij-35, 4 mM DTT, 5 μM ATP and 1.5 μM peptide substrate (FITC-AHA-AKRRRLSSLRA-OH) (SEQ ID No. 1). Compounds were dissolved in DMSO so that the final concentration of DMSO was <2%, and the reaction was initiated with Rho kinase variants. After incubation, the reaction was terminated by the addition of EDTA and the phosphorylated and non-phosphorylated peptides separated using a LABCHIP® 3000 Reader (Caliper Life Sciences). […] Compounds were tested in dose-response format, and the inhibition of kinase activity was calculated at each concentration of compound. The inhibition data were fit using a curve-fitting program to determine the IC50; i.e., the concentration of compound required to inhibit 50% of kinase activity.

Chain of Rho-associated protein kinase 2 (O75116 whole entry, looked up, change not shown): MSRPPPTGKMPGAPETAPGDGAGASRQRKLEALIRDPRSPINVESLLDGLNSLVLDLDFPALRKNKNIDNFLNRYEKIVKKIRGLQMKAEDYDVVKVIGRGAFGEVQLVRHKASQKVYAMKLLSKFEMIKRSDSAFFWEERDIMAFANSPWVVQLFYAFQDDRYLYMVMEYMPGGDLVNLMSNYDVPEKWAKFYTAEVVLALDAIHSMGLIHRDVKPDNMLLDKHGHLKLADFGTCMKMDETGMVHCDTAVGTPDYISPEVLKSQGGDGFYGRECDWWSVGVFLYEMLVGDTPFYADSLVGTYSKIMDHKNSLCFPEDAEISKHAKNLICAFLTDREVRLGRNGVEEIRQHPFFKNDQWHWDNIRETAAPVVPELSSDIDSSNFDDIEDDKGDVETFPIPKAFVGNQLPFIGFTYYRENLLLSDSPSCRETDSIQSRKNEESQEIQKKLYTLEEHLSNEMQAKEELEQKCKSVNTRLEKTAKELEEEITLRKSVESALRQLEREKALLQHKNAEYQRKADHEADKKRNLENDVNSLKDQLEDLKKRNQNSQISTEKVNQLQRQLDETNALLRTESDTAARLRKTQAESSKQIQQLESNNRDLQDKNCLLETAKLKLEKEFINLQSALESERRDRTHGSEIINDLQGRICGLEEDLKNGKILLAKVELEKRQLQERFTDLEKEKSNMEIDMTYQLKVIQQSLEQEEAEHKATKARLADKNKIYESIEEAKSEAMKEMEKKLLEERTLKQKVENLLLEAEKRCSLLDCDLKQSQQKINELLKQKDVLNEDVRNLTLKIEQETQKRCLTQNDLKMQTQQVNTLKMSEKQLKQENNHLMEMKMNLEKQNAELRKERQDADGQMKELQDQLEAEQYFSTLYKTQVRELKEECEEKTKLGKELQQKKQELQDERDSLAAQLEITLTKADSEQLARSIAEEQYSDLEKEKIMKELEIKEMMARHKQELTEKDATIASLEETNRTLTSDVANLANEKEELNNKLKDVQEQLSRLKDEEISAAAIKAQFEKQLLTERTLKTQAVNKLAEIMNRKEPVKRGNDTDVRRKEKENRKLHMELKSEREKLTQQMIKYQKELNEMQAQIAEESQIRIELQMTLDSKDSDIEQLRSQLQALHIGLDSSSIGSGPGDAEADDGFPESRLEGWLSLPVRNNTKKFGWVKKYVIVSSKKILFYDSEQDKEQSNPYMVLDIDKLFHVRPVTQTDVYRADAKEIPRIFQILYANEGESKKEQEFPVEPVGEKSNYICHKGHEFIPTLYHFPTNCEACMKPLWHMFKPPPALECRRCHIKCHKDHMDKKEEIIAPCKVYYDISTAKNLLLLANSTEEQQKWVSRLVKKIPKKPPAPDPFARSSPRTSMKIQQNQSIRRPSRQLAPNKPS

SMILES: N#Cc1cnc(NC2CC3(C2)CC(Oc2ncccc2C(N)=O)C3)nc1 (stereo unspecified)
- IC50: 1.51 µM
